Reference: PubChem BioAssay (NCI)
Several values for one entry are separate records, joined by “and”; a condition that tells them apart may be missing. Equal values may be shown once.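 Five compound concentrations were applied to cells in 96-well plates for 48 hours; endpoints were derived by simple linear interpolation of the resulting dose-response curve. GI50 = concentration required for 50% inhibition of growth. TGI marks complete inhibition of growth.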

Experiments:
Test in all cases: DTP human tumour cell line panel, 48 h
MDA-MB-231 breast = test system: MDA-MB-231 breast
SF-539 CNS = test system: SF-539 CNS
LOX IMVI melanoma = test system: LOX IMVI melanoma
HCT-116 colon = test system: HCT-116 colon
A549 NSCLC = test system: A549 NSCLC
UO-31 renal = test system: UO-31 renal
HOP-62 NSCLC = test system: HOP-62 NSCLC
KM12 colon = test system: KM12 colon
A498 renal = test system: A498 renal
MALME-3M melanoma = test system: MALME-3M melanoma
SF-268 CNS = test system: SF-268 CNS
OVCAR-8 ovarian = test system: OVCAR-8 ovarian
SK-OV-3 ovarian = test system: SK-OV-3 ovarian
SN12C renal = test system: SN12C renal
RXF 393 renal = test system: RXF 393 renal
OVCAR-3 ovarian = test system: OVCAR-3 ovarian
CCRF-CEM leukemia = test system: CCRF-CEM leukemia
M14 melanoma = test system: M14 melanoma
NCI/ADR-RES ovarian = test system: NCI/ADR-RES ovarian
NCI-H460 lung = test system: NCI-H460 lung
HS 578T breast = test system: HS 578T breast
NCI-H522 lung = test system: NCI-H522 lung
SNB-19 CNS = test system: SNB-19 CNS
SF-295 CNS = test system: SF-295 CNS
HCC-2998 colon = test system: HCC-2998 colon
EKVX NSCLC = test system: EKVX NSCLC
BT-549 breast = test system: BT-549 breast
SK-MEL-28 melanoma = test system: SK-MEL-28 melanoma
TK-10 renal = test system: TK-10 renal
RPMI-8226 leukemia = test system: RPMI-8226 leukemia
NCI-H226 lung = test system: NCI-H226 lung
COLO 205 colon = test system: COLO 205 colon
OVCAR-5 ovarian = test system: OVCAR-5 ovarian
HT29 colon = test system: HT29 colon
SK-MEL-2 melanoma = test system: SK-MEL-2 melanoma
MDA-MB-435 = test system: MDA-MB-435
SK-MEL-5 melanoma = test system: SK-MEL-5 melanoma
CAKI-1 renal = test system: CAKI-1 renal
OVCAR-4 ovarian = test system: OVCAR-4 ovarian
MCF7 breast = test system: MCF7 breast
K-562 leukemia = test system: K-562 leukemia
HOP-92 NSCLC = test system: HOP-92 NSCLC
SW-620 colon = test system: SW-620 colon
PC-3 prostate = test system: PC-3 prostate
DU-145 prostate = test system: DU-145 prostate
SR leukemia = test system: SR leukemia
786-0 renal = test system: 786-0 renal
SNB-75 CNS = test system: SNB-75 CNS
UACC-257 melanoma = test system: UACC-257 melanoma
UACC-62 melanoma = test system: UACC-62 melanoma
MOLT-4 leukemia = test system: MOLT-4 leukemia
ACHN renal = test system: ACHN renal
HL-60(TB) leukemia = test system: HL-60(TB) leukemia
NCI-H23 lung = test system: NCI-H23 lung
HCT-15 colon = test system: HCT-15 colon
IGROV1 ovarian = test system: IGROV1 ovarian
U251 CNS = test system: U251 CNS

CC(=O)c1cnc2ccc(-c3cc(Cl)c(O)c(Cl)c3)nc2c1NC1CCC(CN(C)C)CC1 (stereo not drawn)
GI50 (MDA-MB-231 breast): 0.0316 µM and 0.185 µM | TGI (MDA-MB-231 breast): 0.495 µM and 0.772 µM | TGI (SF-539 CNS): 0.0531 µM and 0.505 µM | TGI (LOX IMVI melanoma): 0.264 µM and 1.12 µM | GI50 (HCT-116 colon): 0.00906 µM and 0.0613 µM | TGI (HCT-116 colon): 2.5 µM and > 10 µM | TGI (A549 NSCLC): 0.57 µM and 1.45 µM | TGI (UO-31 renal): 0.0877 µM and 0.508 µM | GI50 (HOP-62 NSCLC): 0.0275 µM and 0.195 µM | TGI (HOP-62 NSCLC): 0.161 µM and 0.959 µM | TGI (KM12 colon): 0.558 µM and 2 µM | GI50 (A498 renal): 0.0137 µM and 0.111 µM | TGI (A498 renal): 0.0559 µM and 0.403 µM | GI50 (MALME-3M melanoma): 0.0484 µM and 0.0499 µM | TGI (MALME-3M melanoma): 0.22 µM and 0.416 µM | TGI (SF-268 CNS): 0.189 µM and 1.22 µM | GI50 (OVCAR-8 ovarian): 0.0289 µM and 0.255 µM | TGI (SK-OV-3 ovarian): 0.111 µM and 0.987 µM | TGI (SN12C renal): 1.34 µM and 2.27 µM | GI50 (RXF 393 renal): 0.0358 µM and 0.185 µM | TGI (RXF 393 renal): 0.0939 µM and 0.419 µM | TGI (OVCAR-3 ovarian): 0.0781 µM and 0.562 µM | TGI (CCRF-CEM leukemia): 0.24 µM and 1.54 µM | TGI (M14 melanoma): 0.273 µM and 0.76 µM | GI50 (NCI/ADR-RES ovarian): 0.0531 µM and 0.31 µM | TGI (NCI-H460 lung): 0.105 µM and 1.05 µM | TGI (HS 578T breast): 0.107 µM and 0.739 µM | GI50 (NCI-H522 lung): 0.00488 µM and 0.048 µM | GI50 (SNB-19 CNS): 0.0311 µM and 0.23 µM | TGI (SNB-19 CNS): 2.5 µM and 3.82 µM | GI50 (SF-295 CNS): 0.0329 µM and 0.267 µM | GI50 (HCC-2998 colon): 0.0449 µM and 0.191 µM | GI50 (EKVX NSCLC): 0.0486 µM and 0.337 µM | TGI (BT-549 breast): 0.12 µM and 0.588 µM | GI50 (SK-MEL-28 melanoma): 0.0194 µM and 0.186 µM | TGI (SK-MEL-28 melanoma): 0.171 µM and 0.758 µM | GI50 (TK-10 renal): 0.0307 µM and 0.16 µM | TGI (TK-10 renal): 0.106 µM and 0.664 µM | GI50 (RPMI-8226 leukemia): 0.0451 µM and 0.367 µM | GI50 (NCI-H226 lung): 0.0395 µM and 0.0819 µM | TGI (NCI-H226 lung): 0.359 µM and 0.608 µM | GI50 (COLO 205 colon): 0.0425 µM and 0.318 µM | GI50 (OVCAR-5 ovarian): 0.0612 µM and 0.207 µM | TGI (OVCAR-5 ovarian): 2.5 µM and > 10 µM | GI50 (HT29 colon): 0.0844 µM and 0.436 µM | TGI (HT29 colon): 0.888 µM and 4.41 µM | GI50 (SK-MEL-2 melanoma): 0.0288 µM and 0.237 µM | TGI (SK-MEL-2 melanoma): 0.0855 µM and 0.689 µM | GI50 (MDA-MB-435): 0.0128 µM and 0.116 µM | TGI (MDA-MB-435): 0.384 µM and 1.16 µM | TGI (SK-MEL-5 melanoma): 0.0554 µM and 0.306 µM | GI50 (CAKI-1 renal): 0.0126 µM and 0.109 µM | TGI (CAKI-1 renal): 0.672 µM and 0.535 µM | GI50 (OVCAR-4 ovarian): 0.0404 µM and 0.245 µM | TGI (OVCAR-4 ovarian): 0.324 µM and 2.58 µM | GI50 (MCF7 breast): 0.0179 µM and 0.169 µM | TGI (MCF7 breast): 0.224 µM and 0.695 µM | TGI (K-562 leukemia): 2.5 µM and > 10 µM | GI50 (HOP-92 NSCLC): 0.0114 µM and 0.0526 µM | TGI (HOP-92 NSCLC): 0.099 µM and 0.458 µM | TGI (SW-620 colon): 2.5 µM and > 10 µM | TGI (PC-3 prostate): 2.5 µM and 1.19 µM | TGI (DU-145 prostate): 1.08 µM and 1.76 µM | GI50 (SR leukemia): 0.00549 µM | TGI (SR leukemia): 0.0398 µM | GI50 (786-0 renal): 0.0521 µM and 0.346 µM | TGI (786-0 renal): 0.289 µM and 1.42 µM | GI50 (SNB-75 CNS): 0.00515 µM and 0.0333 µM | TGI (SNB-75 CNS): 0.0368 µM and 0.36 µM | GI50 (UACC-257 melanoma): 0.0544 µM and 0.192 µM | TGI (UACC-257 melanoma): 0.234 µM and 0.783 µM

CCCN1C(=O)/C(=C/c2cccc(O)c2)SC1=Nc1ccccc1
GI50 (UACC-62 melanoma): 16.4 µM | TGI (UACC-62 melanoma): 29.9 µM | GI50 (MDA-MB-231 breast): 11.4 µM | TGI (MDA-MB-231 breast): 24 µM | GI50 (SF-539 CNS): 18.8 µM | TGI (SF-539 CNS): 34 µM | GI50 (MOLT-4 leukemia): 38 µM | TGI (MOLT-4 leukemia): > 100 µM | GI50 (LOX IMVI melanoma): 11.8 µM | TGI (LOX IMVI melanoma): 25.5 µM | GI50 (HCT-116 colon): 38.3 µM | TGI (HCT-116 colon): > 100 µM | GI50 (A549 NSCLC): 15.1 µM | TGI (A549 NSCLC): 31.7 µM | GI50 (ACHN renal): 16.4 µM | TGI (ACHN renal): 31.2 µM | GI50 (UO-31 renal): 17.4 µM | TGI (UO-31 renal): 34.4 µM | GI50 (KM12 colon): 11.9 µM | TGI (KM12 colon): 26.9 µM | GI50 (A498 renal): 2.7 µM | TGI (A498 renal): 17.1 µM | GI50 (SF-268 CNS): 22.7 µM | TGI (SF-268 CNS): 57.3 µM | GI50 (HL-60(TB) leukemia): 30.8 µM | TGI (HL-60(TB) leukemia): > 100 µM | GI50 (OVCAR-8 ovarian): 19 µM | TGI (OVCAR-8 ovarian): 37.9 µM | GI50 (SN12C renal): 15.7 µM | TGI (SN12C renal): 29.1 µM | GI50 (RXF 393 renal): 17.6 µM | TGI (RXF 393 renal): 36.9 µM | GI50 (OVCAR-3 ovarian): 17.7 µM | TGI (OVCAR-3 ovarian): 32.3 µM | GI50 (M14 melanoma): 29 µM | TGI (M14 melanoma): 67.8 µM | GI50 (NCI/ADR-RES ovarian): 17.3 µM | TGI (NCI/ADR-RES ovarian): 33.1 µM | GI50 (NCI-H460 lung): 14.8 µM | TGI (NCI-H460 lung): 37.7 µM | GI50 (HS 578T breast): 16.7 µM | TGI (HS 578T breast): 34.7 µM | GI50 (NCI-H23 lung): 19 µM | TGI (NCI-H23 lung): 34.3 µM | GI50 (NCI-H522 lung): 22.3 µM | TGI (NCI-H522 lung): 60 µM | GI50 (SNB-19 CNS): 18 µM | TGI (SNB-19 CNS): 34.5 µM | GI50 (SF-295 CNS): 19 µM | TGI (SF-295 CNS): 83.8 µM | GI50 (HCT-15 colon): 14.8 µM | TGI (HCT-15 colon): 29.6 µM | GI50 (EKVX NSCLC): 19.2 µM | TGI (EKVX NSCLC): 33.9 µM | GI50 (BT-549 breast): 17.1 µM | TGI (BT-549 breast): 30.8 µM | GI50 (SK-MEL-28 melanoma): 21.1 µM | TGI (SK-MEL-28 melanoma): 42.5 µM | GI50 (TK-10 renal): 6.7 µM | TGI (TK-10 renal): 24 µM | GI50 (RPMI-8226 leukemia): 14.5 µM | TGI (RPMI-8226 leukemia): 34.3 µM | GI50 (NCI-H226 lung): 20.8 µM | TGI (NCI-H226 lung): 41.2 µM | GI50 (COLO 205 colon): 18.4 µM | TGI (COLO 205 colon): 41.5 µM | GI50 (OVCAR-5 ovarian): 16.8 µM | TGI (OVCAR-5 ovarian): 31 µM | GI50 (HT29 colon): 17.3 µM | TGI (HT29 colon): 33.8 µM | GI50 (SK-MEL-2 melanoma): 16.6 µM | TGI (SK-MEL-2 melanoma): 36.5 µM | GI50 (MDA-MB-435): 22.7 µM | TGI (MDA-MB-435): 51.3 µM | GI50 (SK-MEL-5 melanoma): 19.6 µM | TGI (SK-MEL-5 melanoma): 35.2 µM | GI50 (CAKI-1 renal): 22 µM | TGI (CAKI-1 renal): 38 µM | GI50 (OVCAR-4 ovarian): 23.2 µM | TGI (OVCAR-4 ovarian): 58.4 µM | GI50 (IGROV1 ovarian): 20 µM | TGI (IGROV1 ovarian): 44.4 µM | GI50 (MCF7 breast): 24.4 µM | TGI (MCF7 breast): > 100 µM | GI50 (K-562 leukemia): 6.72 µM | TGI (K-562 leukemia): > 100 µM | GI50 (U251 CNS): 14.1 µM | TGI (U251 CNS): 28.2 µM | GI50 (SW-620 colon): 18.5 µM | TGI (SW-620 colon): 34.4 µM | GI50 (PC-3 prostate): 16.9 µM | TGI (PC-3 prostate): 33.1 µM | GI50 (DU-145 prostate): 13 µM | TGI (DU-145 prostate): 25.6 µM | GI50 (SR leukemia): 17.5 µM | TGI (SR leukemia): > 100 µM | GI50 (786-0 renal): 20.7 µM | TGI (786-0 renal): 49.9 µM | GI50 (SNB-75 CNS): 15.1 µM | TGI (SNB-75 CNS): 32.9 µM | GI50 (UACC-257 melanoma): 18.8 µM | TGI (UACC-257 melanoma): 36 µM
